Experimental data reported in article PMC11063128 (Journal of the American Chemical Society, 2023).

T1: MMADHC (CblD) (Homo sapiens, UniProt Q9H3L0, C261S/C262S)
T1 sequence (Q9H3L0 1-296 C261S/C262S): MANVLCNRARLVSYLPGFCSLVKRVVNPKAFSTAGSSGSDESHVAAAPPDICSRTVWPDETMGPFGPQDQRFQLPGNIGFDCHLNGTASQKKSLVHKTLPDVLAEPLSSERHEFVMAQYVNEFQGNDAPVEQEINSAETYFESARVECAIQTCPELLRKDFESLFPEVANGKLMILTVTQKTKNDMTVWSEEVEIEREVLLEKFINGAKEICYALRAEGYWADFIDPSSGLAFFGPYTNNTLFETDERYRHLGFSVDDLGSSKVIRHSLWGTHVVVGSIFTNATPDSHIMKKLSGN

T2: C262S ^ΔNMMADHC–S–Cob(III) (human, UniProt Q9H3L0 116-296, C262S, thiolato-cob(III)alamin (cobalamin coordinated through a cysteine sulfur, -S-Cob(III)))
T2 sequence (looked up): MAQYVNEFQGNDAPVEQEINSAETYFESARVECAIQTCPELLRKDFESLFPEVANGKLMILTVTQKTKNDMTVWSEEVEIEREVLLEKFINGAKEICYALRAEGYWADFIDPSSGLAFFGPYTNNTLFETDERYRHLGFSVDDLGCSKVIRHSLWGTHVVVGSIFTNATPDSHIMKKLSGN


Assays:
MMADHC (CblD) = target: T1, MMADHC (CblD); assay: UV-visible titration; assay type: binding
[1] = target: T2, C262S ^ΔNMMADHC–S–Cob(III); assay: UV-visible absorbance titration

Kd (MMADHC (CblD)) [µM] | stoichiometry N [1] | Molecule
8.4 ± 1.9 |  | H2OCbl
 | 1 | ^ΔNMTR, C-terminal half of human methionine synthase (cap, B12 and AdoMet domains, residues 661–1265) (domain or fragment, UniProt Q99707 661-1265, looked up) IQTDEWRNGPVEERLEYALVKGIEKHIIEDTEEARLNQKKYPRPLNIIEGPLMNGMKIVGDLFGAGKMFLPQVIKSARVMKKAVGHLIPFMEKEREETRVLNGTVEEEDPYQGTIVLATVKGDVHDIGKNIVGVVLGCNNFRVIDLGVMTPCDKILKAALDHKADIIGLSGLITPSLDEMIFVAKEMERLAIRIPLLIGGATTSKTHTAVKIAPRYSAPVIHVLDASKSVVVCSQLLDENLKDEYFEEIMEEYEDIRQDHYESLKERRYLPLSQARKSGFQMDWLSEPHPVKPTFIGTQVFEDYDLQKLVDYIDWKPFFDVWQLRGKYPNRGFPKIFNDKTVGGEARKVYDDAHNMLNTLISQKKLRARGVVGFWPAQSIQDDIHLYAEAAVPQAAEPIATFYGLRQQAEKDSASTEPYYCLSDFIAPLHSGIRDYLGLFAVACFGVEELSKAYEDDGDDYSSIMVKALGDRLAEAFAEELHERVRRELWAYCGSEQLDVADLRRLRYKGIRPAPGYPSQPDHTEKLTMWRLADIEQSTGIRLTESLAMAPASAVSGLYFSNLKSKYFAVGKISKDQVEDYALRKNISVAEVEKWLGPILGYDTD
